Assays:
[1] = test system: T. rubrum; assay: PDT of T. rubrum on human stratum corneum (ex-vivo model), fungicidal effect; assay type: cell-based, Trichophyton rubrum; conditions: for relative frequency of the fungicidal effect: read day 8; for MIC (Minimum Inhibitory Concentration): 2 h incubation in water, 1 h 30 mW/cm^2 red light
Method: A polycarbonate membrane filter, 25 mm in diameter and a pore size of 2 μm (Whatman, Breda, The Netherlands) was placed in the central part of a 3 cm culture dish (Greiner, Alphen aan den Rijn, The Netherlands) filled with 5 ml of Malt Extract Agar (MEA). A circular piece of human stratum corneum (SC) with a diameter of 1 cm was subsequently placed on the membrane filter and both were gently brushed with a paintbrush dipped in 70% ethanol. A microconidia suspension isolated from Trichphyton rubrum (CBS nr. 304.60 obtained from Centraal Bureau voor Schimmelcultures, Utrecht, The Netherlands, and prepared as described by Smijs G. M. T. et al (2004) in “Photodynamic treatment of the dermatophyte Trichophyton Rubrum and its microconidia with porphyrin sensitizers. PhotoChemistry and PhotoBiology, 80, 197 - 202”) was diluted to 1000 CFU/ml and 15 μl was inoculated on the circular sheet of human SC. The dish was placed in an incubator at 28° C. and at 17 hours after spore inoculation photodynamic treatment (PDT) was applied.
At 17 hours after spore inoculation, the membrane filter with SC containing spore inoculates was transported from the MEA dish to a 3 cm culture dish filled with 1035 μl incubation medium. The incubation medium contained 1 ml of distilled water with an adjusted pH (3.5, 4.5, 5.2, or 7.4) and 35 μl of a Sylsens B stock solution (Buchem, Apeldoorn, the Nederland) . To optimize the contact of the inoculates with the incubation medium, the membrane filter with the SC was turned upside down during the incubation period of 2 hours. The incubation was performed under continuous shaking conditions. Shortly before the illumination period the membrane filter containing the SC was turned back (surface SC now faces the lamp). In all cases, the illumination time was 1 hour using a red light irradiance of 30 mW/cm^2. This corresponds to a light dose of 108 J/cm^2. After the illumination the membrane filter with the SC were transported to a fresh MEA dish, placed in a 28° C. incubator and fungal growth was followed for several weeks. Dark controls were included, i.e. the same procedure was carried out except that the inoculated microconidia on human skin were treated with solvent and/or photosensitizer in the dark. In the light controls, the microconidia were treated with solvent (only) in the presence of light. The efficacy of the treatment was expressed as a relative frequency of complete inactivation (killing) of fungal growth detected at day 8 after spore inoculation. This was assessed microscopically with the use of a Zeiss Axiovert 25 (Germany). […] The treatment effect was followed for a period of several months. Every experiment contained 4 to 6 duplicates of all conditions and the experiments were repeated 3 times at least.
PDT of T. rubrum 17 hours after spore inoculation using the ex-vivo model, different concentrations of Sylsens B and a different pH (water medium). The numbers indicate the relative frequency of the fungicidal effect^1. Numbers between brackets give the number of tests performed.
The experiment with Sylsens B was repeated more extensively, for a longer period of time and with more samples. More specifically, the photodynamic efficacy of Sylsens B towards T. rubrum was tested at 17 (FIG. 2a), 48 (FIG. 2b) and 72 hours (FIG. 2c) after spore inoculation on human SC, at the following incubation pH values: Filled diamonds: pH 3.5, filled squares: pH 5.2 and filled triangles: pH 7.4.

[2] = test system: the fungus cultivated in suspension; assay: binding of Sylsens B to the fungus cultivated in suspension / photodynamic effect with competing cations; assay type: cell-based, T. rubrum; conditions: in the presence of 5 mM CaCl2 at pH 5.2
Method: In the above experiments, deuteroporphyrin monomethylether (DP mme), an anionic porphyrin, was used as a control. […] The effect of calcium-ions was investigated by determining the photodynamic effect in the presence of 5 mM CaCl2 at pH 5.2. […] So, PDT may even be used to inactivate (kill) the growing fungus if measures are taken to prevent naturally present calcium from interfering with the treatment, in particular by using a chelating compound such as EDTA.

[3] = production of 1O2 over the pH range; assay type: physicochemical; conditions: over the pH range used

## C[n+]1ccc(-c2c3nc(c(-c4cc[n+](C)cc4)c4ccc([nH]4)c(-c4cc[n+](C)cc4)c4nc(c(-c5ccccc5)c5ccc2[nH]5)C=C4)C=C3)cc1.[Cl-].[Cl-].[Cl-] [Sylsens B, 5,10,15-tris(4-methylpyridinium)-20-phenyl-[21H,23H]-porphine trichloride]
[1]; 0.5 μM, pH 3.5, illuminated, PDT 17 h after spore inoculation
  relative frequency of the fungicidal effect: 0 (6)
[1]; 0.5 μM, pH 5.2, illuminated, PDT 17 h after spore inoculation
  relative frequency of the fungicidal effect: 0 (3)
[1]; 0.5 μM, pH 7.4, illuminated, PDT 17 h after spore inoculation
  relative frequency of the fungicidal effect: 0 (6)
[1]; 1 μM, pH 3.5, dark control, 17 h after spore inoculation
  relative frequency of the fungicidal effect: 0 (2)
[1]; 1 μM, pH 3.5, illuminated, 17 h after spore inoculation
  relative frequency of the fungicidal effect: 0 (6)
[1]; 1 μM, pH 5.2, dark control, 17 h after spore inoculation
  relative frequency of the fungicidal effect: 0 (2)
[1]; 1 μM, pH 5.2, illuminated, 17 h after spore inoculation
  relative frequency of the fungicidal effect: 0 (3)
[1]; 1 μM, pH 7.4, dark control, 17 h after spore inoculation
  relative frequency of the fungicidal effect: 0 (2)
[1]; 1 μM, pH 7.4, illuminated, 17 h after spore inoculation
  relative frequency of the fungicidal effect: 0 (6)
[1]; 5 μM, pH 3.5, dark control, 17 h after spore inoculation
  relative frequency of the fungicidal effect: 0 (2)
[1]; 5 μM, pH 3.5, illuminated, 17 h after spore inoculation
  relative frequency of the fungicidal effect: 0.2 (10)
[1]; 5 μM, pH 5.2, dark control, 17 h after spore inoculation
  relative frequency of the fungicidal effect: 0 (4)
[1]; 5 μM, pH 5.2, illuminated, 17 h after spore inoculation
  relative frequency of the fungicidal effect: 0.43 (7)
[1]; 5 μM, pH 7.4, dark control, 17 h after spore inoculation
  relative frequency of the fungicidal effect: 0 (6)
[1]; 5 μM, pH 7.4, illuminated, 17 h after spore inoculation
  relative frequency of the fungicidal effect: 0.4 (12)
[1]; 6 μM, pH 3.5, illuminated, 17 h after spore inoculation
  relative frequency of the fungicidal effect: 0.5 (2)
[1]; 6 μM, pH 5.2, illuminated, 17 h after spore inoculation
  relative frequency of the fungicidal effect: 1 (4)
[1]; 6 μM, pH 7.4, dark control, 17 h after spore inoculation
  relative frequency of the fungicidal effect: 0 (6)
[1]; 6 μM, pH 7.4, illuminated, 17 h after spore inoculation
  relative frequency of the fungicidal effect: 0.2 (12)
[1]; 7 μM, pH 5.2, illuminated, 17 h after spore inoculation
  relative frequency of the fungicidal effect: 1 (4)
[1]; 8 μM, pH 3.5, illuminated, 17 h after spore inoculation
  relative frequency of the fungicidal effect: 0.75 (4)
[1]; 8 μM, pH 5.2, illuminated, 17 h after spore inoculation
  relative frequency of the fungicidal effect: 1 (4)
[1]; 8 μM, pH 7.4, dark control, 17 h after spore inoculation
  relative frequency of the fungicidal effect: 0 (6)
[1]; 8 μM, pH 7.4, illuminated, 17 h after spore inoculation
  relative frequency of the fungicidal effect: 0.6 (12)
[1]; 9 μM, pH 5.2, illuminated, 17 h after spore inoculation
  relative frequency of the fungicidal effect: 1 (4)
[1]; 10 μM, pH 3.5, dark control, 17 h after spore inoculation
  relative frequency of the fungicidal effect: 0 (2)
[1]; 10 μM, pH 3.5, illuminated, 17 h after spore inoculation
  relative frequency of the fungicidal effect: 0.8 (10)
[1]; 10 μM, pH 5.2, dark control, 17 h after spore inoculation
  relative frequency of the fungicidal effect: 0 (4)
[1]; 10 μM, pH 5.2, illuminated, 17 h after spore inoculation
  relative frequency of the fungicidal effect: 1 (9)
[1]; 10 μM, pH 7.4, dark control, 17 h after spore inoculation
  relative frequency of the fungicidal effect: 0 (6)
[1]; 10 μM, pH 7.4, illuminated, 17 h after spore inoculation
  relative frequency of the fungicidal effect: 0.6 (12)
[1]; 15 μM, pH 3.5, illuminated, 17 h after spore inoculation
  relative frequency of the fungicidal effect: 1 (4)
[1]; 15 μM, pH 5.2, illuminated, 17 h after spore inoculation
  relative frequency of the fungicidal effect: 1 (4)
[1]; 15 μM, pH 7.4, dark control, 17 h after spore inoculation
  relative frequency of the fungicidal effect: 0.5 (6)
[1]; 15 μM, pH 7.4, illuminated, 17 h after spore inoculation
  relative frequency of the fungicidal effect: 0.7 (12)
[1]; 20 μM, pH 3.5, dark control, 17 h after spore inoculation
  relative frequency of the fungicidal effect: 0 (2)
[1]; 20 μM, pH 3.5, illuminated, 17 h after spore inoculation
  relative frequency of the fungicidal effect: 1 (4)
[1]; 20 μM, pH 5.2, dark control, 17 h after spore inoculation
  relative frequency of the fungicidal effect: 0 (2)
[1]; 20 μM, pH 7.4, dark control, 17 h after spore inoculation
  relative frequency of the fungicidal effect: 0.3 (6)
[1]; 20 μM, pH 7.4, illuminated, 17 h after spore inoculation
  relative frequency of the fungicidal effect: 0.6 (12)
[1]; 30 μM, pH 3.5, dark control, 17 h after spore inoculation
  relative frequency of the fungicidal effect: 0.5 (2)
[1]; 30 μM, pH 3.5, illuminated, 17 h after spore inoculation
  relative frequency of the fungicidal effect: 1 (4)
[1]; 30 μM, pH 5.2, dark control, 17 h after spore inoculation
  relative frequency of the fungicidal effect: 1 (2)
[1]; 30 μM, pH 5.2, illuminated, 17 h after spore inoculation
  relative frequency of the fungicidal effect: 1 (5)
[1]; 30 μM, pH 7.4, dark control, 17 h after spore inoculation
  relative frequency of the fungicidal effect: 0.3 (6)
[1]; 30 μM, pH 7.4, illuminated, 17 h after spore inoculation
  relative frequency of the fungicidal effect: 0.6 (12)
[1]; 40 μM, pH 3.5, illuminated, 17 h after spore inoculation
  relative frequency of the fungicidal effect: 1 (4)
[1]; 40 μM, pH 7.4, dark control, 17 h after spore inoculation
  relative frequency of the fungicidal effect: 0 (6)
[1]; 40 μM, pH 7.4, illuminated, 17 h after spore inoculation
  relative frequency of the fungicidal effect: 1 (12)
[1]; 50 μM, pH 3.5, dark control, 17 h after spore inoculation
  relative frequency of the fungicidal effect: 0.5 (2)
[1]; 50 μM, pH 3.5, illuminated, 17 h after spore inoculation
  relative frequency of the fungicidal effect: 1 (10)
[1]; 50 μM, pH 5.2, dark control, 17 h after spore inoculation
  relative frequency of the fungicidal effect: 1 (2)
[1]; 50 μM, pH 5.2, illuminated, 17 h after spore inoculation
  relative frequency of the fungicidal effect: 1 (3)
[1]; 50 μM, pH 7.4, dark control, 17 h after spore inoculation
  relative frequency of the fungicidal effect: 0.5 (6)
[1]; 50 μM, pH 7.4, illuminated, 17 h after spore inoculation
  relative frequency of the fungicidal effect: 0.9 (12)
[1]; 65 μM, pH 3.5, dark control, 17 h after spore inoculation
  relative frequency of the fungicidal effect: 1 (2)
[1]; 65 μM, pH 3.5, illuminated, 17 h after spore inoculation
  relative frequency of the fungicidal effect: 1 (4)
[1]; 65 μM, pH 7.4, dark control, 17 h after spore inoculation
  relative frequency of the fungicidal effect: 1 (6)
[1]; 65 μM, pH 7.4, illuminated, 17 h after spore inoculation
  relative frequency of the fungicidal effect: 1 (12)
[1]; 80 μM, pH 3.5, dark control, 17 h after spore inoculation
  relative frequency of the fungicidal effect: 0.5 (4)
[1]; 80 μM, pH 3.5, illuminated, 17 h after spore inoculation
  relative frequency of the fungicidal effect: 1 (8)
[1]; 80 μM, pH 5.2, dark control, 17 h after spore inoculation
  relative frequency of the fungicidal effect: 1 (2)
[1]; 80 μM, pH 5.2, illuminated, 17 h after spore inoculation
  relative frequency of the fungicidal effect: 1 (3)
[1]; 80 μM, pH 7.4, dark control, 17 h after spore inoculation
  relative frequency of the fungicidal effect: 1 (6)
[1]; 80 μM, pH 7.4, illuminated, 17 h after spore inoculation
  relative frequency of the fungicidal effect: 1 (12)
[1]; 17-hour stage after spore inoculation
  cfu in dark controls: 8 to 12 cfu
[1]; 48-hour and 72 hour stage, concentrations higher than 80 μM
  cfu in dark controls: 5 to 8 cfu
[1]; 48-hour and 72 hour stage, up to 80 μM Sylsens B
  cfu in dark controls: 8 to 12 cfu
[1]; pH 5.2, PDT 17 h after spore inoculation
  MIC (Minimum Inhibitory Concentration): 5 to 6 µM
[1]; pH 7.4, PDT 17 h after spore inoculation
  MIC (Minimum Inhibitory Concentration): ≧50 μM
[2]
  binding of Sylsens B to the fungus: eliminated binding
[3]
  production of 1O2: substantially constant
